Experimental data from patent US20260048022A1, “ENDOTHELIAL DAMAGE AND NANOPARTICLE TARGETING: COMPOSITIONS, PROCESSES, USES” (Nanoprobes, Inc., priority 2022, published 2026).
Like-named read-outs stand apart in the source and are kept apart here.

Columns and labels:
[1] = test system: advanced non-squamous non-small-cell lung cancer; settings: Phase II, with carboplatin, paclitaxel, and bevacizumab; cited from earlier work
[2] = Phase III trials; cited from earlier work
tumors [3] = test: Tumor treatment, variation of fibrinogen, drug and VDA amounts; type: in vivo
Experimental: One of the components, fibrinogen, was varied from 10 to 150 mg/kg.
In a preferred embodiment, 60 mg PTX/kg and 350 mg fibrinogen/kg are formed into nanoparticles 110-180 nm or 110 to 350 nm in size. Another discovery process requiring extensive experimentation was to find the type of fibrinogen that worked well. […] Various forms and fractions were tested to find a preferable one for tumor targeting.

tumors [4] = settings: Pedley et al, 1996; cited from earlier work
DNA = test: Nanoparticle targeting of DNA; type: binding; settings: DNA binder incorporated into nanoparticles
Experimental: (§1) 0.2 mg of acridine yellow G or 0.2 mg of propidium iodide were dissolved in DMSO by heating twice at 80° C. for 2 min. 15 mg albumin was dissolved in 0.4 mL of PBS. While sonicating the albumin solution in an ice bath, the acridine or propidium solutions were slowly over about 10-20 sec injected at the sonicator tip. Sonication was continued for another minute. Clear colored solutions were obtained. Both were filtered through a 0.45 μm filter, all passing through. However, if albumin was not used, the solution containing acridine all was retained by the filter, whereas the propidium solution passed through. Both were purified with 50 kD Amicon centrifugal filters with PBS washing.
(§2) 20 mg of albumin was dissolved in 0.4 mL water and mixed with 0.5 mg of Dox making a clear colored solution. Under sonication and in an ice-water bath, 80 ul of 0.1 M NaOH was slowly injected near the sonicator tip. Next, 10 ul of 8% glutaraldehyde (in water) was added with an additional 5 minutes of sonication producing a clear solution. After 30 min, 30 ul of a 3 M solution of ethanolamine hydrochloride was added. After 30 min, the construct was purified on a 50 kDa centrifugal filter. […] After resuspension of the retentate in PBS the size of the nanoparticles was measured to be 117 nm by dynamic light scattering.

[5] = Payload retention / incorporation in protein nanoparticles; type: physicochemical; settings: PBS washing
Experimental: as §1
as §2, with “scattering. […]” for “scattering.”

[6] = free drug, literature, cited from earlier work

COc1ccc(/C=C\c2cc(OC)c(OC)c(OC)c2)cc1OP(=O)(O)O.NC(CO)(CO)CO [CA4P, fosbretabulin tromethamine]
patient benefit [1]: little patient benefit

Cc1ccc2c(=O)c3cccc(CC(=O)O)c3oc2c1C [DMXAA]
patient survival [2]: lack of patient gain in survival | dose close to optimal (tumors [3]; DMXAA as vascular disrupting agent with nanoparticles): ~18 mg/kg | dose leading to excessive toxicity (mouse, in vivo): > 20 mg/kg | ineffective dose (current teaching) (tumors [4]): less than 20 mg/kg | useful dose (current teaching) (tumors [4]): 27.5 mg/kg

Cc1cc2cc3cc(C)c(N)cc3nc2cc1N [acridine yellow G]
targeting of necroses / free DNA when included in a nanoparticle (DNA): found to target the nanoparticles to free DNA | retention with albumin on 50 kD Amicon centrifugal filters (stable complex) [5]: remained in the retentate

CC(=O)O[C@H]1C(=O)[C@@]2(C)[C@H]([C@H](OC(=O)c3ccccc3)[C@]3(O)C[C@H](OC(=O)[C@H](O)[C@@H](NC(=O)c4ccccc4)c4ccccc4)C(C)=C1C3(C)C)[C@]1(OC(C)=O)CO[C@@H]1C[C@@H]2O [paclitaxel]
treatment result (tumors [3]; 60-90 mg PTX/kg in the nanoparticle): excellent results | maximum tolerated dose (reported / published) [6]: 10 mg/kg | maximum tolerated dose (reported / published) ([6]; listed as PTX): 25 mg/kg | tolerability (mouse, in vivo, 90 mg/kg): well-tolerated | multiple of the maximum tolerated dose that can be safely administered (using the disclosed method): ~4 times

CC[N+](C)(CC)CCC[n+]1c(-c2ccccc2)c2cc(N)ccc2c2ccc(N)cc21 [propidium, propidium iodide]
targeting of necroses / free DNA when included in a nanoparticle (DNA): failed | retention with albumin on 50 kD Amicon centrifugal filters (stable complex) [5]: came through in the filtrate
